Reference: US7601863B2, “Use of PPAR agonists for the treatment of congestive heart failure” (sanofi-aventis Deutschland GmbH, priority 2004, dated 2009)

What was measured:
[1] = test system: rat model of chronic coronary artery ligation (myocardial infarction, congestive heart failure); experiment: Proof of concept study: chronic heart failure after permanent left coronary artery occlusion; lung weight and isolated working heart after eight weeks of treatment; assay type: in vivo, Male Wistar rats; conditions: for Lung weight / Cardiac output / LV dP/dtmax / LV dP/dtmin: MI, eight weeks, mean ± sem; for Cardiac output / LV dP/dtmax / LV dP/dtmin: working heart, afterload 80 mmHg
Excerpt: In order to test the effect of specific activation of either PPARγ (rosiglitazone) or PPARα (compound of formula (I), (II) and (III)) on the improvement of CHF, a rat model of chronic coronary artery ligation was used because myocardial infarction is the most common cause for CHF in the industrialized countries.
Male Wistar rats were housed three per cage under standardized conditions of temperature, humidity, and light. They had free access to a standardized diet (sodium content 0.2%, Altromin, Lage, Germany) and tap drinking water. Chronic heart failure was induced by a permanent occlusion of the left coronary artery approximately 2 mm distal to its origin from the aorta resulting in a large infarction of the free left ventricular wall. Chronic treatment was initiated on the day after production of the myocardial infarction and continued for eight weeks.
The left atrium was cannulated by an incision of the left auricle. After a 15-minute equilibration period at a fixed perfusion pressure of 60 mmHg, the heart was switched into the working mode at a fixed filling pressure of 11 mm Hg. Then, afterload pressure was varied stepwise every two minutes from 40 to 140 mmHg. […] Flow and pressure signals were sampled at 500 Hz, averaged every 2 seconds. Cardiac output measures the overall capacity of the heart to pump the blood through the body. LV dP/dtmax is an index of myocardial contractility, i.e. the force generating ability of the heart; LV dP/dtmin is an index of the ability of the myocardium to relax. In addition, lung weight was measured as an index of pulmonary congestion, an indirect sign of CHF.
Treatment with a compound of the formula (I) (pressed in chow, resulting in a dose of 20 mg/kg/d) was initiated on the day after myocardial infarction. The pure PPARγ agonist rosiglitazone was used for comparison in an additional group (3 mg/kg/day in chow).

[2] = test system: rats with chronic ligation of the left coronary artery (myocardial infarction, heart failure); experiment: Dose response in chronic myocardial infarction: lung weight and isolated working heart after 8 weeks of treatment; assay type: in vivo, Male Sprague Dawley rats; conditions: for Lung weight / Cardiac output / LV dP/dtmax / LV dP/dtmin: MI, 8 weeks, mean ± sem; for Cardiac output / LV dP/dtmax / LV dP/dtmin: working heart, afterload 80 mmHg
Protocol: At the end of the treatment period, cardiac function was measured using an isolated working heart preparation (modified Langendorff apparatus, cf. Linz et al., J. Ren. Angiotensin Aldosterone Syst., 2003): The hearts were perfused according to Langendorff's method with an oxygenated (95% O2, 5% CO2) noncirculating Krebs-Henseleit solution of the following compositions (mmol/L): NaCl, 118; KCl, 4.7; CaCl2, 2.5; MgSO4, 1.6; NaHCO3, 24.9; KH2PO4, 1.2; glucose, 5.5; Na-pyruvate, 2.0. The left atrium was cannulated by an incision of the left auricle. After a 15-minute equilibration period at a fixed perfusion pressure of 60 mmHg, the heart was switched into the working mode at a fixed filling pressure of 11 mm Hg. Then, afterload pressure was varied stepwise every two minutes from 40 to 140 mmHg. Data in the table are representative and given for a constant afterload pressure of 80 mmHg. Flow and pressure signals were sampled at 500 Hz, averaged every 2 seconds. Cardiac output measures the overall capacity of the heart to pump the blood through the body. LV dP/dtmax is an index of myocardial contractility, i.e. the force generating ability of the heart; LV dP/dtmin is an index of the ability of the myocardium to relax. In addition, lung weight was measured as an index of pulmonary congestion, an indirect sign of CHF.
Male Sprague Dawley rats were pre-treated with a chronic ligation of the left coronary artery, in order to produce a myocardial infarction (MI) and subsequent development of heart failure: Treatment with a compound of the formula (I) (pressed in chow, resulting in different daily doses) was initiated on the day after myocardial infarction. After 8 weeks of treatment, the animals were killed, the lung was weighed, and the function of the isolated heart was analyzed ex vivo in the working heart mode, in the same manner as described for Example 1 (vide supra). This method allows to assess different aspects of the myocardial function. For comparison against the effect of an established therapeutic principle in the present experimental series, the dual ACE/NEP, or vasopeptidase, inhibitor (7-(2-Acetylsulfanyl-3-methyl-butyrylamino)-6-oxo-1,2,3,4,6,7,8,12b-octahydro-benzo[c]pyrido[1,2-a]azepine-4-carboxylic acid; international patent application no. WO 02/083671) that is known for being active in the treatment of CHF was applied in an additional group.

[3] = rosiglitazone 3 mg/kg/d in chow
[4] = compound (I) 20 mg/kg/d in chow

CN(CCOc1ccc(CC2SC(=O)NC2=O)cc1)c1ccccn1 (centres unmarked) [Rosiglitazone, rosiglitazone, reference compound]
Lung weight [1, 3]: 3.67 ± 0.38 Gram | Cardiac output [1, 3]: 10.2 ± 3.8 mL/min | LV dP/dtmax [1, 3]: 3491 ± 147 mmHg/s | LV dP/dtmin [1, 3]: 2081 ± 65 mmHg/s

Cc1cccc(COCCCOCc2coc(-c3ccccc3)n2)c1C(=O)O [compound (I), 2-methyl-6-[3-(2-phenyloxazol-4-ylmethoxy)propoxymethyl] benzoic acid]
Effect of chronic treatment on heart failure (in words) ([1]; MI rats, eight weeks in chow, compound (I) 20 mg/kg/d, rosiglitazone 3 mg/kg/day): improves different aspects of heart failure | Lung weight [1, 4]: 1.62 ± 0.06 Gram | Cardiac output [1, 4]: 25.8 ± 4.3 mL/min | LV dP/dtmax [1, 4]: 4614 ± 253 mmHg/s | LV dP/dtmin [1, 4]: 2502 ± 77 mmHg/s | Effect of chronic treatment on heart failure (in words) ([2]; MI rats, 8 weeks in chow, different daily doses): improves different aspects of heart failure | Lung weight ([2]; 1 mg/kg/d in chow): 0.80 ± 0.08 g/100 g BW | Cardiac output ([2]; 1 mg/kg/d in chow): 12.5 ± 3.3 mL/min | LV dP/dtmax ([2]; 1 mg/kg/d in chow): 3280 ± 250 Mm Hg/s | LV dP/dtmin ([2]; 1 mg/kg/d in chow): 1886 ± 137 mm Hg/s | Lung weight ([2]; 3 mg/kg/d in chow): 0.54 ± 0.08 g/100 g BW | Cardiac output ([2]; 3 mg/kg/d in chow): 21.5 ± 5.4 mL/min | LV dP/dtmax ([2]; 3 mg/kg/d in chow): 3665 ± 166 Mm Hg/s | LV dP/dtmin ([2]; 3 mg/kg/d in chow): 2353 ± 77 mm Hg/s | Lung weight ([2]; 10 mg/kg/d in chow): 0.54 ± 0.09 g/100 g BW | Cardiac output ([2]; 10 mg/kg/d in chow): 21.0 ± 4.0 mL/min | LV dP/dtmax ([2]; 10 mg/kg/d in chow): 4043 ± 256 Mm Hg/s | LV dP/dtmin ([2]; 10 mg/kg/d in chow): 2339 ± 111 mm Hg/s

CC(=O)SC(C(=O)NC1Cc2ccccc2C2CCCC(C(=O)O)N2C1=O)C(C)C (centres unmarked) [VPI, 7-(2-Acetylsulfanyl-3-methyl-butyrylamino)-6-oxo-1,2,3,4,6,7,8,12b-octahydro-benzo[c]pyrido[1,2-a]azepine-4-carboxylic acid, reference compound]
Lung weight ([2]; 30 mg/kg/d): 0.56 ± 0.07 g/100 g BW | Cardiac output ([2]; 30 mg/kg/d): 27.2 ± 3.5 mL/min | LV dP/dtmax ([2]; 30 mg/kg/d): 3868 ± 172 Mm Hg/s | LV dP/dtmin ([2]; 30 mg/kg/d): 2379 ± 120 mm Hg/s
